Patent US11998610B2, “Conjugates and methods of using the same” (Flagship Pioneering Innovations V, Inc., priority 2018, dated 2024)

Columns and labels:
CT26.CL25 cells = test: Cell viability readout (CellTiter-Glo) with bacteria-free media; type: cell-based, mouse; conditions: 10 nM compound, CT26.CL25 cells, 72 h, CellTiter-Glo
Method: Example 100: Cell-Based Assay of Bacterial Enzymes with Mammalian CT26.CL25 Mouse Colorectal Carcinoma Viability Readout
Bacteria-free media was incubated with the indicated test compound. ((R)—N1-(2-(methylamino)ethyl)-2-octanamidosuccinamide, a recognition element-linker conjugate lacking a payload, was serially diluted 1:1000 in DMSO and […] in medium+10% FBS to give a final concentration of 10 nM. Compound 35, Compound 76, Compound 77, Compound 78, Compound 79, and SN-38 were serially diluted 1:1000 in DMSO and 1:1000 in medium to give a final concentration of 10 nM, and then the bacteria-free supernatants were tested for their ability to kill mammalian cells. As an additional control, the test compound will also be incubated with bacteria-free media. The above steps can also be performed in the presence of E. coli (CFT073 ATCC 700928, Nissle 1917, or BL21 (DE3)) to effect cleavage of the conjugates of the application.
On Day 1, CT26.CL25 cells (15,000 cells/well) were seeded in triplicate into a 24 well plate and incubated overnight in 100 μL of complete medium. The reactions (bacteria or media blank) was pelleted by centrifugation, and then the supernatant was passed through a 0.2 μm sterile filter to remove residual bacteria.
On Day 2, 300 μL of a 10 nM solution of each compound in media were applied to separate wells of CT26.CL25 cells as prepared on Day 1. The cells were incubated at 37° C. for 72 h. After this point, viability was assessed using a CellTiter-Glo kit.
Binning of the compounds was achieved by measuring cell growth or arrest (e.g. remaining cells are >90% viable, >80% viable, >70% viable, >60% viable, >50% viable, >40% viable, >30% viable, >20% viable, or >10% viable).

E. coli BL21(DE3) = test: Payload release in the presence of fecal matter, ClbP negative E. coli; type: cell-based; conditions: 10 μM compound, anaerobic, 37° C., 20 h, LCMS
Source text: (§1) This example is representative of the methods described in Example 103. Fecal samples were subjected to metagenomic whole-genome shotgun sequencing followed by querying the dataset for the presence of the clbP gene or by attempting to amplify the gene with primers specific for it by qPCR. Samples that gave a signal below the detection limit were used in subsequent steps. The fecal sample was resuspended as a 15% (w/v) slurry in Anaerobic Phosphate Buffer Saline.
(§2) Following steps 1 and 2 as detailed in Example 98, E. coli CFT073 ATCC 700928, E. coli Nissle 1917, or E. coli BL21(DE3) were grown in liquid culture.
(§3) In an anaerobic chamber, the E. coli strains were added to the fecal samples obtained in step 1 at a dilution level calculated to represent 0, 1, 10, 50, 90, 99, or 100% of all organisms present in PRAS dilution blank on a 200 μL volume. The test compound (10 μM final concentration) was added to the mixture. The test compound was also added to a bacteria-free media control under similar conditions. The plate was sealed and incubated at 37° C. for 20 h. Under similar conditions, a standard curve of both the starting material and the payload compound was made in bacteria-free media.
(§4) After 20 h, an aliquot was tested for breakdown and release of a payload by LCMS by diluting serially to a final dilution of 1:100 first with Acetonitrile (10× dilution) and then with (1:1) Mobile Phase A-0.1% Formic Acid in Water:Mobile Phase B-0.1% Formic acid in Acetonitrile (1 OX dilution), with absolute quantification compared to the external standard curve. In an ideal case, the amount of payload released in the reaction(s) with ClbP-encoding E. coli was >75% of the theoretical maximum, and none was released in the E. coli BL21(DE3) and media-alone conditions. In an acceptable case, the amount of payload released in the reaction(s) with ClbP-encoding E. coli was 25-75% of the theoretical maximum, and <25% of the theoretical maximum was released in the E. coli BL21(DE3) and media-alone conditions. In a non-preferred case, the amount of payload released in the reactions(s) with ClbP-encoding E. coli was <25% of the theoretical maximum, and >25% of the theoretical maximum was released in the E. coli BL21(DE3) and media-alone conditions.

E. coli Nissle 1917 = test: Payload release in the presence of fecal matter, ClbP positive E. coli; type: cell-based; conditions: 10 μM compound, anaerobic, 37° C., 20 h, LCMS
Source text: as §1, §2, §3, §4

SMILES: CCCCCCCC(=O)N[C@H](CC(N)=O)C(=O)NCCN(C)C(=O)O[C@]1(CC)C(=O)OCc2c1cc1n(c2=O)Cc2c-1nc1ccc(O)cc1c2CC [Example 79, (S)-4,11-diethyl-9-hydroxy-3,14-dioxo-3,4,12,14-tetrahydro-1H-pyrano[3′,4′:6,7]indolizino[1,2-b]quinolin-4-yl (2-((R)-4-amino-2-octanamido-4-oxobutanamido)ethyl)(methyl)carbamate]
- Bacteria-free media (Luminescence, average of three runs) (CT26.CL25 cells): 288245
- % payload released in ClbP negative (BL21 DE3) at 1:1 ratio of E. coli to fecal bacteria (E. coli BL21(DE3)): 0%
- % payload released in ClbP positive (Nissle 1917) at 1:1 ratio of E. coli to fecal bacteria (E. coli Nissle 1917): 0%

SMILES: CCCCCCNC(=O)N[C@H](CC(N)=O)C(=O)NCCN(C)C(=O)Oc1ccc2nc3c(c(CC)c2c1)Cn1c-3cc2c(c1=O)COC(=O)[C@]2(O)CC [Example 77, (S)-4,11-diethyl-4-hydroxy-3,14-dioxo-3,4,12,14-tetrahydro-1H-pyrano[3′,4′:6,7]indolizino[1,2-b]quinolin-9-yl (2-((R)-4-amino-2-(3-hexylureido)-4-oxobutanamido)ethyl)(methyl)carbamate]
- Bacteria-free media (Luminescence, average of three runs) (CT26.CL25 cells): 345334
- % payload released in ClbP negative (BL21 DE3) at 1:1 ratio of E. coli to fecal bacteria (E. coli BL21(DE3)): 0%
- % payload released in ClbP positive (Nissle 1917) at 1:1 ratio of E. coli to fecal bacteria (E. coli Nissle 1917): 0%
